Source: PubChem BioAssay (NCI)
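Step 1: Grow cells in 96-well plates. Step 2: Expose to compound for 48 hours at 5 concentrations. Step 3: Interpolate endpoints linearly; if unreached, use highest concentration. TGI marks complete inhibition of growth.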

Legend:
Assay in all cases: growth of human tumour cells (NCI), 48 h
786-0 renal = tested on: 786-0 renal
A498 renal = tested on: A498 renal
A549 NSCLC = tested on: A549 NSCLC
ACHN renal = tested on: ACHN renal
BT-549 breast = tested on: BT-549 breast
CAKI-1 renal = tested on: CAKI-1 renal
CCRF-CEM leukemia = tested on: CCRF-CEM leukemia
COLO 205 colon = tested on: COLO 205 colon
DU-145 prostate = tested on: DU-145 prostate
EKVX NSCLC = tested on: EKVX NSCLC
HCC-2998 colon = tested on: HCC-2998 colon
HCT-116 colon = tested on: HCT-116 colon
HCT-15 colon = tested on: HCT-15 colon
HL-60(TB) leukemia = tested on: HL-60(TB) leukemia
HOP-62 NSCLC = tested on: HOP-62 NSCLC
HOP-92 NSCLC = tested on: HOP-92 NSCLC
HS 578T breast = tested on: HS 578T breast
HT29 colon = tested on: HT29 colon
IGROV1 ovarian = tested on: IGROV1 ovarian
K-562 leukemia = tested on: K-562 leukemia
KM12 colon = tested on: KM12 colon
LOX IMVI melanoma = tested on: LOX IMVI melanoma
M14 melanoma = tested on: M14 melanoma
MALME-3M melanoma = tested on: MALME-3M melanoma
MCF7 breast = tested on: MCF7 breast
MDA-MB-231 breast = tested on: MDA-MB-231 breast
MDA-MB-435 = tested on: MDA-MB-435
MDA-N = tested on: MDA-N
MOLT-4 leukemia = tested on: MOLT-4 leukemia
NCI-H226 lung = tested on: NCI-H226 lung
NCI-H23 lung = tested on: NCI-H23 lung
NCI-H460 lung = tested on: NCI-H460 lung
NCI-H522 lung = tested on: NCI-H522 lung
NCI/ADR-RES ovarian = tested on: NCI/ADR-RES ovarian
OVCAR-3 ovarian = tested on: OVCAR-3 ovarian
OVCAR-4 ovarian = tested on: OVCAR-4 ovarian
OVCAR-5 ovarian = tested on: OVCAR-5 ovarian
OVCAR-8 ovarian = tested on: OVCAR-8 ovarian
PC-3 prostate = tested on: PC-3 prostate
RPMI-8226 leukemia = tested on: RPMI-8226 leukemia
RXF 393 renal = tested on: RXF 393 renal
SF-268 CNS = tested on: SF-268 CNS
SF-295 CNS = tested on: SF-295 CNS
SF-539 CNS = tested on: SF-539 CNS
SK-MEL-2 melanoma = tested on: SK-MEL-2 melanoma
SK-MEL-28 melanoma = tested on: SK-MEL-28 melanoma
SK-MEL-5 melanoma = tested on: SK-MEL-5 melanoma
SK-OV-3 ovarian = tested on: SK-OV-3 ovarian
SN12C renal = tested on: SN12C renal
SNB-19 CNS = tested on: SNB-19 CNS
SNB-75 CNS = tested on: SNB-75 CNS
SR leukemia = tested on: SR leukemia
SW-620 colon = tested on: SW-620 colon
T-47D breast = tested on: T-47D breast
TK-10 renal = tested on: TK-10 renal
U251 CNS = tested on: U251 CNS
UACC-257 melanoma = tested on: UACC-257 melanoma
UACC-62 melanoma = tested on: UACC-62 melanoma
UO-31 renal = tested on: UO-31 renal

SMILES: OC1c2c(ccc3c2CCC3)CC12Cc1ccccc1C2 (configuration not stated)
- TGI (786-0 renal): 30.9 µM
- TGI (A498 renal): 30.2 µM
- TGI (A549 NSCLC): 34.5 µM
- TGI (ACHN renal): 32.7 µM
- TGI (BT-549 breast): 31.6 µM
- TGI (CAKI-1 renal): 33.4 µM
- TGI (CCRF-CEM leukemia): 83.1 µM
- TGI (COLO 205 colon): 31.9 µM
- TGI (DU-145 prostate): 31.2 µM
- TGI (EKVX NSCLC): 31.4 µM
- TGI (HCC-2998 colon): 27.5 µM
- TGI (HCT-116 colon): 29.7 µM
- TGI (HCT-15 colon): 30.2 µM
- TGI (HL-60(TB) leukemia): 44.7 µM
- TGI (HOP-62 NSCLC): 30.1 µM
- TGI (HOP-92 NSCLC): 25.8 µM
- TGI (HS 578T breast): 35.5 µM
- TGI (HT29 colon): 31.3 µM
- TGI (IGROV1 ovarian): 47.5 µM
- TGI (K-562 leukemia): 54.9 µM
- TGI (KM12 colon): 29.7 µM
- TGI (LOX IMVI melanoma): 29.4 µM
- TGI (M14 melanoma): 28.8 µM
- TGI (MALME-3M melanoma): 25.2 µM
- TGI (MCF7 breast): 32.8 µM
- TGI (MDA-MB-231 breast): 29.4 µM
- TGI (MDA-MB-435): 29.5 µM
- TGI (MDA-N): 28.8 µM
- TGI (MOLT-4 leukemia): > 100 µM
- TGI (NCI-H226 lung): 26.6 µM
- TGI (NCI-H23 lung): 30.9 µM
- TGI (NCI-H460 lung): 33 µM
- TGI (NCI-H522 lung): 30.3 µM
- TGI (NCI/ADR-RES ovarian): 35.4 µM
- TGI (OVCAR-3 ovarian): 26.5 µM
- TGI (OVCAR-4 ovarian): 38.3 µM
- TGI (OVCAR-5 ovarian): 31.3 µM
- TGI (OVCAR-8 ovarian): 33.7 µM
- TGI (PC-3 prostate): 30.3 µM
- TGI (RPMI-8226 leukemia): 50.8 µM
- TGI (RXF 393 renal): 27.2 µM
- TGI (SF-268 CNS): 29.4 µM
- TGI (SF-295 CNS): 31.9 µM
- TGI (SF-539 CNS): 35.8 µM
- TGI (SK-MEL-2 melanoma): 28.8 µM
- TGI (SK-MEL-28 melanoma): 30.5 µM
- TGI (SK-MEL-5 melanoma): 29.3 µM
- TGI (SK-OV-3 ovarian): 32.9 µM
- TGI (SN12C renal): 28.8 µM
- TGI (SNB-19 CNS): 32.9 µM
- TGI (SNB-75 CNS): 35.6 µM
- TGI (SR leukemia): 44.6 µM
- TGI (SW-620 colon): 32.8 µM
- TGI (T-47D breast): 53.5 µM
- TGI (TK-10 renal): 28 µM
- TGI (U251 CNS): 29.7 µM
- TGI (UACC-257 melanoma): 27.4 µM
- TGI (UACC-62 melanoma): 29.4 µM
- TGI (UO-31 renal): 27.4 µM

SMILES: CC(C)(C)OC(=O)NC(Cc1ccc(OCc2ccccc2)cc1)C(=O)NC(COCc1ccccc1)C(=O)Oc1c(Cl)c(Cl)c(Cl)c(Cl)c1Cl (configuration not stated)
- TGI (A498 renal): 53.2 µM
- TGI (A549 NSCLC): 89.7 µM
- TGI (ACHN renal): 76.6 µM
- TGI (BT-549 breast): 38.3 µM
- TGI (CAKI-1 renal): 47.4 µM
- TGI (CCRF-CEM leukemia): > 100 µM
- TGI (COLO 205 colon): 36.5 µM
- TGI (DU-145 prostate): 46.8 µM
- TGI (EKVX NSCLC): 82.4 µM
- TGI (HCC-2998 colon): 40.5 µM
- TGI (HCT-116 colon): 30.1 µM
- TGI (HCT-15 colon): 33.5 µM
- TGI (HL-60(TB) leukemia): > 100 µM
- TGI (HOP-62 NSCLC): 32.9 µM
- TGI (HOP-92 NSCLC): 32.8 µM
- TGI (HS 578T breast): 41.8 µM
- TGI (HT29 colon): 69.7 µM
- TGI (IGROV1 ovarian): 41.7 µM
- TGI (K-562 leukemia): > 100 µM
- TGI (KM12 colon): 39 µM
- TGI (LOX IMVI melanoma): 53 µM
- TGI (M14 melanoma): 42.9 µM
- TGI (MALME-3M melanoma): 68.2 µM
- TGI (MCF7 breast): 48.2 µM
- TGI (MDA-MB-231 breast): 27.6 µM
- TGI (MDA-MB-435): 56.7 µM
- TGI (MDA-N): 80.8 µM
- TGI (MOLT-4 leukemia): > 100 µM
- TGI (NCI-H226 lung): 54.5 µM
- TGI (NCI-H23 lung): 35.6 µM
- TGI (NCI-H460 lung): 36.7 µM
- TGI (NCI-H522 lung): 42 µM
- TGI (NCI/ADR-RES ovarian): 50 µM
- TGI (OVCAR-3 ovarian): 28.9 µM
- TGI (OVCAR-4 ovarian): 85.3 µM
- TGI (OVCAR-5 ovarian): 67.3 µM
- TGI (OVCAR-8 ovarian): 52.6 µM
- TGI (PC-3 prostate): 40.4 µM
- TGI (RPMI-8226 leukemia): > 100 µM
- TGI (RXF 393 renal): 63.9 µM
- TGI (SF-268 CNS): 65.6 µM
- TGI (SF-295 CNS): 52.4 µM
- TGI (SF-539 CNS): 29.7 µM
- TGI (SK-MEL-2 melanoma): 36.6 µM
- TGI (SK-MEL-28 melanoma): 71.8 µM
- TGI (SK-MEL-5 melanoma): 33.7 µM
- TGI (SK-OV-3 ovarian): 46.9 µM
- TGI (SN12C renal): 62.4 µM
- TGI (SNB-19 CNS): > 100 µM
- TGI (SNB-75 CNS): > 100 µM
- TGI (SR leukemia): > 100 µM
- TGI (SW-620 colon): 73 µM
- TGI (T-47D breast): 88.5 µM
- TGI (TK-10 renal): 85.8 µM
- TGI (U251 CNS): 38.1 µM
- TGI (UACC-257 melanoma): 84.8 µM
- TGI (UACC-62 melanoma): 32.3 µM
- TGI (UO-31 renal): 30.7 µM
